Data reported in ChEMBL document CHEMBL1130186, “Potent alpha 4 beta 1 peptide antagonists as potential anti-inflammatory agents” (J Med Chem, 1997).
*1 amine or outer side, *2 acyl side, *3 side chain or, on linkers, in order; H or OH if unused. Where a SMILES comes first, the peptide text is derived from it. Bridges are numbered along the chain shown (N, C = ends). [ ]: non-standard residue; d: D form. The star is where a group is joined. X5 = O=C([C@H](Cc1c(F)c(F)c(O)c(F)c1F)N[*:1])[*:2]; Fluorene(1-CO) = O=C(c1cccc2c1Cc1ccccc1-2)*; Tyr(3-Cl) = N[C@@H](Cc1ccc(O)c(Cl)c1)C(=O)O; Phenylacetyl(4-OMe) = COc1ccc(CC(=O)*)cc1; Tyr(3-F) = N[C@@H](Cc1ccc(O)c(F)c1)C(=O)O; Tyr(3-I) = N[C@@H](Cc1ccc(O)c(I)c1)C(=O)O; X1 = O=C(C(Cc1ccc(O)cc1)c1ccccc1)*; mTyr = N[C@@H](Cc1cccc(O)c1)C(=O)O; X4 = O=C(c1ccc(-c2ccc(O)cc2)cc1)*; X2 = O=C(c1cccc2cc(O)ccc12)*; 3Abz = Nc1cccc(C(=O)O)c1; Inp = O=C(O)C1CCNCC1; GABA = NCCCC(=O)O; βAla = NCCC(=O)O

Legend:
Integrin alpha-4/beta-1 [1] = molecular target: T1, Integrin alpha-4/beta-1 (Homo sapiens, UniProt P05556+P13612); test: Inhibition of fluorescently labeled alpha4-beta1 positive Ramos cells binding to immobilized VCAM-1.; type: cell-based
T1 sequence (P05556 whole entry): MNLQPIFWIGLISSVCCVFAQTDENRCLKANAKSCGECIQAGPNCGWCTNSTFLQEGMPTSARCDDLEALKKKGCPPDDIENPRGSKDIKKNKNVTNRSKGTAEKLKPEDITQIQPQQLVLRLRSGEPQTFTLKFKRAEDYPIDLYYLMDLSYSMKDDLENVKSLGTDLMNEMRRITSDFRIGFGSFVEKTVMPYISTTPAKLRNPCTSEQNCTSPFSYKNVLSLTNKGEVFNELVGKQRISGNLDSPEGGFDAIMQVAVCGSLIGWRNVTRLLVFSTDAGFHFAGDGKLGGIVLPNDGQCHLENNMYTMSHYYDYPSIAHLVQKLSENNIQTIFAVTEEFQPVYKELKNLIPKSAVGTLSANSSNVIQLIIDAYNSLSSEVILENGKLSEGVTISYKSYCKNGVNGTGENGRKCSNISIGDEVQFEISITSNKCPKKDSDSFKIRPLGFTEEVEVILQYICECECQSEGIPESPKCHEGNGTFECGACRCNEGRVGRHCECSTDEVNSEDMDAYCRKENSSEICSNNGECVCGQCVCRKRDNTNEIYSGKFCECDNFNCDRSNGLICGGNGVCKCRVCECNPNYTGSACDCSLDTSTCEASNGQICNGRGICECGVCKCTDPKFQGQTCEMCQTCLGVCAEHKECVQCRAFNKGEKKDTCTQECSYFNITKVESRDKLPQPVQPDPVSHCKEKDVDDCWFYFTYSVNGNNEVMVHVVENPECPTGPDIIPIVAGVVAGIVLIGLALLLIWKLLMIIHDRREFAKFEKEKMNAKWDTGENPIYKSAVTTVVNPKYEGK
T1 sequence (P13612 whole entry): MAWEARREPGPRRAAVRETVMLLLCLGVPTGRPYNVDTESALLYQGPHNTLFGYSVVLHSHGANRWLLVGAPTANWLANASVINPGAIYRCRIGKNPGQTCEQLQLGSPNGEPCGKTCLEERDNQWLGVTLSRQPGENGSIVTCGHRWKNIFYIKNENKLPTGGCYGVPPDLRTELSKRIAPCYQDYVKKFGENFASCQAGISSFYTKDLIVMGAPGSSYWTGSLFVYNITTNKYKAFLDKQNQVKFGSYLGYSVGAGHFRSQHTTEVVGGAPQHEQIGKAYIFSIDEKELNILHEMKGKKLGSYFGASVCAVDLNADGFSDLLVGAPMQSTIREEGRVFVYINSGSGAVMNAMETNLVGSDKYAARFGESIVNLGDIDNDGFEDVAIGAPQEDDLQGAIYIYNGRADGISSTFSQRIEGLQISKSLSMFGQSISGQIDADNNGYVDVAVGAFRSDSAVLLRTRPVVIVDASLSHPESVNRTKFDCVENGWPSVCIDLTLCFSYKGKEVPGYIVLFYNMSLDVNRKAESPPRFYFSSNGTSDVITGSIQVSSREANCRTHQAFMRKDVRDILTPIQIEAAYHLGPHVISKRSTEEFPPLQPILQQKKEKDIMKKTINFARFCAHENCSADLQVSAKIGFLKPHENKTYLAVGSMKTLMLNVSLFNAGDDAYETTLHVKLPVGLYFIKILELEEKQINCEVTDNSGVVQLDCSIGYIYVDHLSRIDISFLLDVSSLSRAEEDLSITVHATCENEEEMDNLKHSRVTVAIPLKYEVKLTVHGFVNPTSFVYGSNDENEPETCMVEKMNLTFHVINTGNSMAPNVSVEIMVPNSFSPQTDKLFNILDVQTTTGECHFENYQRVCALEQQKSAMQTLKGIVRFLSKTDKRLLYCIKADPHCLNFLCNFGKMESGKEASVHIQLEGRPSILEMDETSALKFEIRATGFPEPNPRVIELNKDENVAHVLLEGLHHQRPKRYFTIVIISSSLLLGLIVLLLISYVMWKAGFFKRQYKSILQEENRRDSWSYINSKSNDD

Integrin alpha-4/beta-1 [2] = molecular target: T1, Integrin alpha-4/beta-1; test: Inhibition of alpha4-beta1 binding to VCAM-1 in ELISA.; type: protein-complex assay
Integrin alpha-4/beta-1 [3] = molecular target: T1, Integrin alpha-4/beta-1; test: Inhibition of purified alpha-4 beta-1 binding to VCAM-1 was determined in an ELISA assay.; type: protein-complex assay

Row | SMILES | IC50 (Integrin alpha-4/beta-1 [1]) | IC50 (Integrin alpha-4/beta-1 [2]) | IC50 (Integrin alpha-4/beta-1 [3])
1 | NC(N)=NCCC[C@H](N)C(=O)N[C@H]1CSSC[C@@H](C(=O)O)NC(=O)[C@@H]2CCCN2C(=O)[C@H](CC(=O)O)NC1=O (H-RCDPC-OH; disulfide 2-5) | 80 µM | 3700 nM | 
2 | N[C@@H](Cc1ccc(O)cc1)C(=O)N[C@H]1CSSC[C@@H](C(=O)O)NC(=O)c2cccc(c2)NC1=O (H-YC[3Abz]C-OH; disulfide 2-4) |  | 8 nM | 
3 | N[C@@H](Cc1ccc(O)cc1)C(=O)N[C@H]1CSSC[C@@H](C(=O)O)NC(=O)CCCNC1=O (H-YC[GABA]C-OH; disulfide 2-4) | 1 µM |  | 38 nM
4 | N[C@@H](Cc1ccc(O)cc1)C(=O)N[C@H]1CSSC[C@@H](C(=O)O)NC(=O)C2CCN(CC2)C1=O (H-YC[Inp]C-OH; disulfide 2-4) | 1.5 µM |  | 31 nM
5 | N[C@@H](Cc1ccc(O)cc1)C(=O)N[C@H]1CSSC[C@@H](C(=O)O)NC(=O)CCNC1=O (H-YC[βAla]C-OH; disulfide 2-4) | 210 µM |  | 4200 nM
6 | NCCCC[C@H](NC(=O)[C@@H](N)Cc1ccc(O)cc1)C(=O)N[C@H]1CSSC[C@@H](C(=O)O)NC(=O)[C@@H]2CCCN2C(=O)[C@H](CC(=O)O)NC1=O (H-YKCDPC-OH; disulfide 3-6) | 5 µM |  | 150 nM
7 | C[C@@H]1NC(=O)[C@@H](NC(=O)[C@H](CCCN=C(N)N)NC(=O)[C@@H](N)Cc2ccc(O)cc2)CSSC[C@@H](C(=O)O)NC(=O)[C@@H]2CCCN2C1=O (H-YRCAPC-OH; disulfide 3-6) | 8 µM |  | 60 nM
8 | NC(N)=NCCC[C@H](NC(=O)[C@@H](N)Cc1ccc(O)cc1)C(=O)N[C@H]1CSSC[C@@H](C(=O)O)NC(=O)[C@@H]2CCCN2C(=O)[C@H](CC(=O)O)NC1=O (H-YRCDPC-OH; disulfide 3-6) | 6 µM |  | 110 nM
9 | N=C(N)NCCC[C@H](NC(=O)[C@@H](N)Cc1ccc(O)cc1)C(=O)N[C@H]1CSSC[C@@H](C(=O)O)NC(=O)[C@@H]2CCCN2C(=O)[C@H](CCC(=O)O)NC1=O (H-YRCEPC-OH; disulfide 3-6) | 30 µM |  | 90 nM
10 | N=C(N)NCCC[C@H](NC(=O)[C@@H](N)Cc1ccc(O)cc1)C(=O)N[C@H]1CSSC[C@@H](C(=O)O)NC(=O)[C@@H]2CCCN2C(=O)[C@H](CC(N)=O)NC1=O (H-YRCNPC-OH; disulfide 3-6) | 7 µM |  | 40 nM
11 | N=C(N)NCCC[C@H](NC(=O)[C@@H](N)Cc1ccc(O)cc1)C(=O)N[C@H]1CSSC[C@@H](C(=O)O)NC(=O)[C@@H]2CCCN2C(=O)[C@H](CCC(N)=O)NC1=O (H-YRCQPC-OH; disulfide 3-6) | 9 µM |  | 50 nM
12 | O=C(N[C@H]1CSSC[C@@H](C(=O)O)NC(=O)[C@@H]2CCCN2C(=O)[C@H](CO)NC1=O)C1CCNCC1 (H-[Inp]CSPC-OH; disulfide 2-5) | 50 µM |  | 4600 nM
13 | N[C@@H](Cc1ccc(O)c(Cl)c1)C(=O)N[C@H]1CSSC[C@@H](C(=O)O)NC(=O)[C@@H]2CCCN2C(=O)[C@H](CO)NC1=O (H-[Tyr(3-Cl)]CSPC-OH; disulfide 2-5) | 0.6 µM |  | 7 nM
14 | N[C@@H](Cc1ccc(O)c(F)c1)C(=O)N[C@H]1CSSC[C@@H](C(=O)O)NC(=O)[C@@H]2CCCN2C(=O)[C@H](CO)NC1=O (H-[Tyr(3-F)]CSPC-OH; disulfide 2-5) | 0.5 µM |  | 8 nM
15 | N[C@@H](Cc1ccc(O)c(I)c1)C(=O)N[C@H]1CSSC[C@@H](C(=O)O)NC(=O)[C@@H]2CCCN2C(=O)[C@H](CO)NC1=O (H-[Tyr(3-I)]CSPC-OH; disulfide 2-5) | 0.2 µM |  | 4 nM
16 | N[C@@H](Cc1c(F)c(F)c(O)c(F)c1F)C(=O)N[C@H]1CSSC[C@@H](C(=O)O)NC(=O)[C@@H]2CCCN2C(=O)[C@H](CO)NC1=O (H-[X5]CSPC-OH; disulfide 2-5) | 60 µM |  | 530 nM
17 | N[C@@H](Cc1cccc(O)c1)C(=O)N[C@H]1CSSC[C@@H](C(=O)O)NC(=O)[C@@H]2CCCN2C(=O)[C@H](CO)NC1=O (H-[mTyr]CSPC-OH; disulfide 2-5) | 25 µM |  | 250 nM
18 | O=C(N[C@H]1CSSC[C@@H](C(=O)O)NC(=O)[C@@H]2CCCN2C(=O)[C@H](CO)NC1=O)C(Cc1ccc(O)cc1)c1ccccc1 (stereo partly drawn) (X1-CSPC-OH; disulfide 1-4) | 2 µM |  | 13 nM
19 | O=C(N[C@H]1CSSC[C@@H](C(=O)O)NC(=O)[C@@H]2CCCN2C(=O)[C@H](CO)NC1=O)c1cccc2cc(O)ccc12 (X2-CSPC-OH; disulfide 1-4) | 40 µM |  | 1100 nM
20 | O=C(N[C@H]1CSSC[C@@H](C(=O)O)NC(=O)[C@@H]2CCCN2C(=O)[C@H](CO)NC1=O)c1ccc(-c2ccc(O)cc2)cc1 (X4-CSPC-OH; disulfide 1-4) | 120 µM |  | 1650 nM
21 | O=C(N[C@H]1CSSC[C@@H](C(=O)O)NC(=O)[C@@H]2CCCN2C(=O)[C@H](CO)NC1=O)c1cccc2c1Cc1ccccc1-2 ({Fluorene(1-CO)}-CSPC-OH; disulfide 1-4) | 1.5 µM |  | 140 nM
22 | COc1ccc(CC(=O)N[C@H]2CSSC[C@@H](C(=O)O)NC(=O)[C@@H]3CCCN3C(=O)[C@H](CO)NC2=O)cc1 ({Phenylacetyl(4-OMe)}-CSPC-OH; disulfide 1-4) | 3 µM |  | 250 nM
